The values that follow are results of earlier work, collected in patent publication US5643912A, “Pyrazinoic acid esters as anti-mycobacterium avium agents” (The Research Foundation of State University of NY, priority 1996, dated 1997).

The subject of the data set is Mycobacterium (M.) tuberculosis. Conditions: cited from earlier work.

In the case of `NC(=O)c1cnccn1` [pyrazinamide], the resistance development result is “resistance develops quickly”.
